Measurements taken from BindingDB's records for doi:10.1074/jbc.M501367200 (Berlex Biosciences, 2005).

Molecular target: T1, 3-phosphoinositide-dependent protein kinase 1 (Homo sapiens, UniProt O15530)
T1 sequence (O15530 whole entry): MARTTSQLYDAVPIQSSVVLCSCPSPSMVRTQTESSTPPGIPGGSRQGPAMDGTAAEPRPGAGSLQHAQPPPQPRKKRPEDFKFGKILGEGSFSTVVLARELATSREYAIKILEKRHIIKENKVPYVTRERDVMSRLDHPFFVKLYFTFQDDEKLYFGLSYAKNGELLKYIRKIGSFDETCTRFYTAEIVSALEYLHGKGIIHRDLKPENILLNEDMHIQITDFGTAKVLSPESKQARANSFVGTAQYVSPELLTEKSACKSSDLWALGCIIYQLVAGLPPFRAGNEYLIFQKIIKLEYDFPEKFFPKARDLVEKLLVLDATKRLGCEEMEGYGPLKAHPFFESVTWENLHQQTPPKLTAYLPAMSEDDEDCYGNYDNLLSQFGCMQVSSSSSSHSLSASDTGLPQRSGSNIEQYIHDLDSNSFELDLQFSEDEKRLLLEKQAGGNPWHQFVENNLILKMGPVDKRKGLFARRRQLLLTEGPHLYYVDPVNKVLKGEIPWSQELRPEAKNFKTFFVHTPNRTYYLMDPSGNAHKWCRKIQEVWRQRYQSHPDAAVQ
Assay: PDK1-mediated AKT2 Activation Assay (cAKT2 33P-SPA)
Settings: pH 7.2; 22 °C
Method: The coupled assay can detect inhibitors of AKT2 activation, as well as direct inhibitors of PDK1 or AKT2. Inactive AKT2 is activated in situ by incubating with PDK1 and PtdIns-3, 4-P2 in the presence of compound, 33P-ATP, and a biotinylated peptide substrate for AKT2. The peptide is captured on streptavidin-coated SPA beads for detection.

| IC50 [nM] | SMILES |
| --- | --- |
| 12 | O=C(Nc1cccc(Nc2ncc(Br)c(NCCc3c[nH]cn3)n2)c1)N1CCCC1 [N-{3-[(5-bromo-4-{[2-(1H-imidazol-4-yl)ethyl]amino}pyrimidin-2-yl)amino]phenyl}pyrrolidine-1-carboxamide] |
| 6 | O=C(NCCCNc1nc(Nc2cccc(NC(=O)N3CCCC3)c2)ncc1I)c1cccs1 [N-{3-[(5-iodo-4-{[3-(thiophen-2-ylformamido)propyl]amino}pyrimidin-2-yl)amino]phenyl}pyrrolidine-1-carboxamide] |
